Assays:
[1] = biological target: recombinant human dual expressed Avi PRMT5/His-MEP50 protein (Homo sapiens (Human), UniProt O14744); experiment: HTRF binding assay in presence of MTA; conditions: 30 μM MTA
How it was run: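 HTRF tracer-displacement binding using human Avi-PRMT5 (2-637)/His-MEP50 (2-342), baculovirus-expressed, with 30 μM MTA and 5 nM in-house tracer in 25 mM ADA pH 7.2, 1 mM TCEP, 50 mM NaCl, 0.002% Tween. Overnight at 2-8° C, then 0.5 nM anti-His-Tb 1 hr RT; 665/620 ratio ×10000.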

[2] = biological target: PRMT5•SAM (biotinylated PRMT5-MEP50) (Homo sapiens (Human), UniProt O14744); experiment: SPR binding assay, SAM running buffer; conditions: 20 μM SAM running buffer
PRMT5•SAM (biotinylated PRMT5-MEP50), sequence (O14744 whole entry, the tested form may be a part): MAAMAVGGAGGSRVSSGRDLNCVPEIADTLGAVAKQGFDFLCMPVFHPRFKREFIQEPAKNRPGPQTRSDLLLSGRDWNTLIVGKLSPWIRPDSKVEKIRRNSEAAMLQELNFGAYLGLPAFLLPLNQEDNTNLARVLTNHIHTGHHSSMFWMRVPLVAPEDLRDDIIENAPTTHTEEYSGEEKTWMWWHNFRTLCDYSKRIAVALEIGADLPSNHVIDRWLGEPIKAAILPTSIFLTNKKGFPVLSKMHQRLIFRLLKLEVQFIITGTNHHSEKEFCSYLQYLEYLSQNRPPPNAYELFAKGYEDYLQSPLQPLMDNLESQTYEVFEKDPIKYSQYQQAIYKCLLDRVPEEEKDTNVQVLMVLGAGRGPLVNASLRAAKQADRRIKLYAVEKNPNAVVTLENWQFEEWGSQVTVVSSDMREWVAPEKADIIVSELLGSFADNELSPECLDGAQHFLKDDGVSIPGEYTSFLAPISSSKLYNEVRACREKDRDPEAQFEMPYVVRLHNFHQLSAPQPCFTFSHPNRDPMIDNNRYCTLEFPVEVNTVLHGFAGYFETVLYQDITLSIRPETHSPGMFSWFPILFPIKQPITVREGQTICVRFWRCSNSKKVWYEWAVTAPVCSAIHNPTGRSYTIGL
PRMT5•SAM (biotinylated PRMT5-MEP50), sequence (Q9BQA1 whole entry partner, the tested form may be a part): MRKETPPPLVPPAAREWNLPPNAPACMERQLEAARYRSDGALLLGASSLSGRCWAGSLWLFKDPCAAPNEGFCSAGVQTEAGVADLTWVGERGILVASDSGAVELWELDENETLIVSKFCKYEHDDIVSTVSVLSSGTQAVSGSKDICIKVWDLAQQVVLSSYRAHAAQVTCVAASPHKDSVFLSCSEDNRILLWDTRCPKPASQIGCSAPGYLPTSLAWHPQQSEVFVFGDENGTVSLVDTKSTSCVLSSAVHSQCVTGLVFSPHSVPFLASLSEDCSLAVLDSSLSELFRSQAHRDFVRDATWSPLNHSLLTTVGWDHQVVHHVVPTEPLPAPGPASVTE
Procedure: (§1) SPR screening was performed in MTA running buffer (25 mM Bicine pH 7.6, 100 mM NaCl, 1 mM TCEP, 20 μM MTA, 0.05% Tween-20 and 2% DMSO). The biotinylated PRMT5-MEP50 surface was equilibrated with MTA running buffer for 12 hours prior to the start. […] Subsequently, compound titration was repeated in SAM-running buffer (25 mM Bicine pH 7.6, 100 mM NaCl, 1 mM TCEP, 20 μM SAM, 0.05% Tween-20, and 2% DMSO). […] After double referencing, the steady-state response was extracted for each fragment concentration and was fit to the Langmuir isotherm equation to determine the equilibrium dissociation constant (KD).

[3] = biological target: T1, PRMT5/MEP50 complex (Homo sapiens (Human), UniProt O14744); experiment: PRMT5:MEP50 FlashPlate Assay; assay type: biochemical
T1 sequence (O14744 whole entry): as the sequence (O14744 whole entry, the tested form may be a part) above
T1 sequence (Q9BQA1 whole entry partner): as the sequence (Q9BQA1 whole entry partner, the tested form may be a part) above
How it was run: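 3 nM human PRMT5/MEP50 pre-incubated 20 min at room temperature with compound and 40 nM biotinylated histone H4(1-15) peptide; reaction started with 1 μM ³H-SAM, run 20 min. Bound tritiated peptide counted by scintillation; IC50 from 10-point curves (top 50 μM) with and without MTA.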

[4] = biological target: PRMT5•MTA (biotinylated PRMT5-MEP50) (Homo sapiens (Human), UniProt O14744); experiment: SPR binding assay, MTA running buffer; conditions: 20 μM MTA running buffer
PRMT5•MTA (biotinylated PRMT5-MEP50), sequence (O14744 whole entry): as the sequence (O14744 whole entry, the tested form may be a part) above
PRMT5•MTA (biotinylated PRMT5-MEP50), sequence (Q9BQA1 whole entry partner): as the sequence (Q9BQA1 whole entry partner, the tested form may be a part) above
Procedure: as §1

[5] = biological target: T1, PRMT5/MEP50 complex; experiment: PRMT5:MEP50 HotSpot Assay; assay type: biochemical; conditions: read-out: IC50 + 2 μM MTA, full-length histone H2A, presence of 2 μM MTA
Procedure: The assay uses recombinant full-length histone H2A as the PRMT5 substrate. Enzymatic transfer of the tritiated methyl group from S-adenosyl-L-[methyl-3H]methionine to the histone H2A protein generated a radiolabeled histone […] in a scintillation counter to determine the activity of PRMT5 enzyme in the presence and absence of compound. […] Briefly, compounds of the present invention were solubilized in 100% DMSO at a highest concentration of 10 mM. […] Control samples lacking compound, PRMT5/MEP50 complex or various reaction components also were prepared and processed in parallel with compound test samples. SAH was used as a positive control for assay validation. To measure PRMT5 inhibitory activity. 1 nM PRMT5/MEP50 complex (Reaction Biology Corporation) was preincubated with test compound in assay buffer containing 5 μM full-length histone H2A for 20 min at room temperature. The enzymatic reaction was initiated by adding 1 μM tritiated S-adenosyl methionine (final concentration) and the reaction was allowed to proceed for 60 min. The reaction was stopped and transferred to filter paper for detection. The amount of tritiated H2A in each sample was determined using a scintillation counter.

recombinant human dual expressed Avi PRMT5/His-MEP50 protein, sequence (O14744 2-637): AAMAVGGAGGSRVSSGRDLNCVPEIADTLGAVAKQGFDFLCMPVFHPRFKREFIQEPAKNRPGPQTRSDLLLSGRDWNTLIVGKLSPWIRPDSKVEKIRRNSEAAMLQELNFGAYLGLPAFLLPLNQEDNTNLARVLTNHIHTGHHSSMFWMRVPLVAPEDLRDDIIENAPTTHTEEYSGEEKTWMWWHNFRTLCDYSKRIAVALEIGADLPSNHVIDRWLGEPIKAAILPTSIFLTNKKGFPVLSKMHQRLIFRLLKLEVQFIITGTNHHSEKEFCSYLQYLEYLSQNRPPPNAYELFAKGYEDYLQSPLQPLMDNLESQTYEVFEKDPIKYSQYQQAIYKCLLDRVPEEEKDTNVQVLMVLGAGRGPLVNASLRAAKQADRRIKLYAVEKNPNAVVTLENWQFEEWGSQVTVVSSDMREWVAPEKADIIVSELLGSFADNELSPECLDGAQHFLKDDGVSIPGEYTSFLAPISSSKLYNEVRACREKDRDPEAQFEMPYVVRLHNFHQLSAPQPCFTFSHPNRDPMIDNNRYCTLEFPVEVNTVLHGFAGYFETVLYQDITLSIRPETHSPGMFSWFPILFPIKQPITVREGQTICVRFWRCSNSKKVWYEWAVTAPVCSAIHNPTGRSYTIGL
recombinant human dual expressed Avi PRMT5/His-MEP50 protein, sequence (Q9BQA1 2-342 partner): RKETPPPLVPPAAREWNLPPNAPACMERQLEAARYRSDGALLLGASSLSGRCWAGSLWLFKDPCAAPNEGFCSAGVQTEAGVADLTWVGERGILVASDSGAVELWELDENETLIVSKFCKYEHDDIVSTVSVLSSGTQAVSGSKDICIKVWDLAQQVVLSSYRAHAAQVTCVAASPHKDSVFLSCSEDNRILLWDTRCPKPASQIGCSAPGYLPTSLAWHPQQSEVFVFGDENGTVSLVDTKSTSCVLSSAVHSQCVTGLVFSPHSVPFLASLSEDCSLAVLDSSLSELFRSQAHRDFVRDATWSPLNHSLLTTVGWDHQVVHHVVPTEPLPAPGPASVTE

SMILES: CC(=O)N(Cc1cc2nc(N)c(C)cc2[nH]1)c1ccc2ccccc2c1C#N [Example 14-2, N-[(5-amino-6-methyl-1H-pyrrolo[3,2-b]pyridin-2-yl)methyl]-N—(I-cyano-2-naphthyl)acetamide]
- IC50 [1]: 2 nM
- Kd [2]: 1 nM
- IC50 ([3]; histone H4 peptide, absence of MTA, read-out: IC50): 798 nM
- IC50 ([3]; read-out: IC50 + 2 μM MTA, histone H4 peptide, presence of 2 μM MTA): 1.72 nM
- Kd [4]: 1 nM
- IC50 [5]: 553 nM
